Measured values from the NIST ThermoML archive (doi:10.1016/j.jct.2004.06.008).

Experiment: molar heat capacity at constant pressure
Settings: 101.33 kPa, Crystal, Vacuum adiabatic calorimetry

[Cu] [copper]
Settings | molar heat capacity at constant pressure [J/K/mol]
6.56 K | 0.0232
7.16 K | 0.0255
7.85 K | 0.0323
8.64 K | 0.04
9.55 K | 0.0534
10.51 K | 0.0663
11.42 K | 0.0839
12.43 K | 0.1121
13.56 K | 0.137
14.81 K | 0.1926
16.17 K | 0.2314
17.69 K | 0.304
19.34 K | 0.4106
20.19 K | 0.4727
21.13 K | 0.5555
21.94 K | 0.6242
23.08 K | 0.7448
23.76 K | 0.8181
25.79 K | 1.058
28.01 K | 1.37
30.46 K | 1.761
33.17 K | 2.259
36.05 K | 2.853
37.57 K | 3.173
39.01 K | 3.497
40.74 K | 3.898
44.1 K | 4.708
45.89 K | 5.146
47.52 K | 5.549
49.38 K | 6.025
52.99 K | 6.933
54.47 K | 7.281
56.65 K | 7.837
56.87 K | 7.882
59.76 K | 8.582
62.64 K | 9.272
66.47 K | 10.14
71.22 K | 11.16
75.97 K | 12.13
80.79 K | 13.04
85.65 K | 13.89
90.55 K | 14.68
95.49 K | 15.41
100.46 K | 16.08
105.45 K | 16.71
110.46 K | 17.28
115.49 K | 17.81
120.54 K | 18.3
125.61 K | 18.75
130.68 K | 19.16
134.74 K | 19.47
135.77 K | 19.54
139.84 K | 19.82
140.87 K | 19.89
144.94 K | 20.16
150.05 K | 20.46
155.17 K | 20.75
160.3 K | 21.02
165.43 K | 21.27
170.57 K | 21.5
175.7 K | 21.72
180.85 K | 21.92
186 K | 22.11
191.15 K | 22.28
193.33 K | 22.35
196.3 K | 22.45
198.48 K | 22.51
201.46 K | 22.6
203.64 K | 22.66
206.62 K | 22.74
208.8 K | 22.79
213.96 K | 22.93
219.13 K | 23.06
224.29 K | 23.19
229.45 K | 23.31
232.56 K | 23.38
234.62 K | 23.41
237.73 K | 23.49
239.79 K | 23.53
242.89 K | 23.59
248.06 K | 23.68
253.24 K | 23.77
258.41 K | 23.86
263.59 K | 23.95
268.77 K | 24.02
273.95 K | 24.09
279.13 K | 24.16
284.31 K | 24.23
289.49 K | 24.31
294.67 K | 24.38
297.38 K | 24.41
299.85 K | 24.44
302.55 K | 24.49
307.73 K | 24.55
312.92 K | 24.61
318.1 K | 24.67
323.28 K | 24.73
325.89 K | 24.75
328.47 K | 24.78
331.06 K | 24.8
336.25 K | 24.85
341.44 K | 24.91
346.62 K | 24.95
351.8 K | 24.99
356.99 K | 25.03
363.06 K | 25.07
368.04 K | 25.11
373.02 K | 25.17
378 K | 25.25
382.98 K | 25.25
387.96 K | 25.3
392.94 K | 25.35
397.62 K | 25.41
